Measurements taken from patent US7034056B2, “Aryl and biaryl compounds having MCH modulatory activity” (Pharmacopeia Drug Discovery, inc., priority 2001, dated 2006).

Molecular target: T1, hMCHR (MCH receptor) (Homo sapiens, UniProt Q99705)
T1 construct: (or internally produced); host or cells: CHO (Chinese hamster ovary) cells, membrane preparation
Test: MCH Assay PCOP Protocol ([125I]-MCH SPA binding to hMCHR-CHO membranes);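 for Activity (Ki range): A 0.4–50 nM B 51–500 nM C 501–2500 nM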
Conditions: [125I]-MCH 0.5 nM, hMCHR-CHO membranes; read-out: Activity (ranges of Ki values)
Outline: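 SPA binding with 10 μg hMCHR-CHO membranes and WGA-SPA beads in 25 mM HEPES pH 7.4, 10 mM NaCl, 10 mM MgCl2, 5 mM MnCl2, 0.1% BSA.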

T1 sequence (Q99705 whole entry): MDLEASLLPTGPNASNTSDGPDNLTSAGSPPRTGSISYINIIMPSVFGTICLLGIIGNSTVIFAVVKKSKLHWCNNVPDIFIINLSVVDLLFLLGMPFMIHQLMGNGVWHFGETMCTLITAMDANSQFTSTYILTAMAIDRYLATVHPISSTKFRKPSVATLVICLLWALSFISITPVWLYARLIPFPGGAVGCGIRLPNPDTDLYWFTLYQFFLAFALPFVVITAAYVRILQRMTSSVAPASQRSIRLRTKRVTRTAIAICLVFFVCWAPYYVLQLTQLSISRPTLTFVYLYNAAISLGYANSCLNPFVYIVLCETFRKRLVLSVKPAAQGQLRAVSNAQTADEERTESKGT

Row | SMILES | Ki
1 | COc1cccc(NC(=O)NCC(CCN(C)C)c2ccc(-c3cccc(C#N)c3)cc2)c1 (stereo not drawn) [Example 63] | 0.4 to 50 nM
2 | N#Cc1cccc(-c2ccc(C(CCNC3CCCC3)CNC(=O)c3ccc(F)c(F)c3)cc2)c1 (stereo not drawn) [Example 83] | 51 to 500 nM
3 | Cc1ccc(-c2cccc(C(CCNC3CCCC3)CNC(=O)Nc3cc(Cl)cc(Cl)c3)c2)cc1 (stereo not drawn) [Example 161] | 501 to 2500 nM
4 | O=C(NCC(CCN1CCC(NC(=O)C2CCC2)C1)c1ccc(Cl)cc1)Nc1cc(Cl)cc(Cl)c1 (stereo not drawn) [Example 178] | 51 to 500 nM
5 | CN(C)CCCNCCC(CNC(=O)Nc1cc(Cl)cc(Cl)c1)c1ccc(-c2cccc(OC(F)(F)F)c2)cc1 (stereo not drawn) [Example 88] | 0.4 to 50 nM
6 | COc1cscc1C(=O)NC1CCN(CCC(CNC(=O)Nc2cc(Cl)cc(Cl)c2)c2ccc(C)cc2)CC1 (stereo not drawn) [Example 203] | 501 to 2500 nM
7 | COc1cscc1C(=O)NC1CCN(CCC(CNC(=O)Nc2cc(Cl)cc(Cl)c2)c2ccc(Cl)cc2)C1 (stereo not drawn) [Example 197] | 51 to 500 nM
8 | N#Cc1cccc(-c2ccc(C(CCNC3CC3)CNC(=O)Nc3cccc(Cl)c3)cc2)c1 (stereo not drawn) [Example 43] | 0.4 to 50 nM
9 | CS(=O)(=O)N(CCC(CNC(=O)Nc1cc(Cl)cc(Cl)c1)c1ccc(-c2cccc(C#N)c2)cc1)C1CCCC1 (stereo not drawn) [Example 87] | 501 to 2500 nM
10 | N#Cc1cccc(-c2ccc(C(CCNC3CC3)CNC(=O)c3ccc(F)c(F)c3)cc2)c1 (stereo not drawn) [Example 68] | 51 to 500 nM
11 | CNCCC(CNC(=O)c1cc(F)cc(F)c1)c1ccc(-c2cccc(C#N)c2)cc1 (stereo not drawn) [Example 70] | 51 to 500 nM
12 | CNCCC(CNC(=O)Nc1ccc(F)c(Cl)c1)c1ccc(-c2cccc(C#N)c2)cc1 (stereo not drawn) [Example 46] | 0.4 to 50 nM
13 | N#Cc1cccc(-c2ccc(C(CCNC3CCCC3)CNC(=O)Nc3ccc(F)c(F)c3)cc2)c1 (stereo not drawn) [Example 74] | 0.4 to 50 nM
14 | CN(C)CCCNCCC(C)(CNC(=O)Nc1ccc(Cl)c([N+](=O)[O-])c1)c1ccc(Cl)c(Cl)c1 (stereo not drawn) [Example 115] | 501 to 2500 nM
15 | CN(C)CCCNCCC(CNC(=O)Nc1cc(Cl)cc(Cl)c1)c1ccc(-c2cc(F)cc(F)c2)cc1 (stereo not drawn) [Example 99] | 51 to 500 nM
16 | CN(C)CCCNCCC(CNC(=O)Nc1cc(Cl)cc(Cl)c1)c1ccc(-c2cccnc2)cc1 (stereo not drawn) [Example 35] | 0.4 to 50 nM
17 | CC(=O)NC1CCN(CCC(CNC(=O)Nc2cc(Cl)cc(Cl)c2)c2ccc(Cl)c(Cl)c2)CC1 (stereo not drawn) [Example 199] | 51 to 500 nM
18 | CC(=O)NC1CCN(CCC(CNC(=O)Nc2cc(Cl)cc(Cl)c2)c2ccc(Cl)cc2)C1 (stereo not drawn) [Example 186] | 51 to 500 nM
19 | O=C(NCC(CCNC1CCCC1)c1ccc2c(c1)OCO2)Nc1ccc(Cl)c([N+](=O)[O-])c1 (stereo not drawn) [Example 104] | 51 to 500 nM
20 | Cc1ccc(C(CCN2CCC(NC(=O)c3ccno3)CC2)CNC(=O)Nc2cc(Cl)cc(Cl)c2)cc1 (stereo not drawn) [Example 205] | 501 to 2500 nM
21 | O=C(NCC(CCN1CCC(NC(=O)c2ccno2)CC1)c1ccc(Cl)cc1)Nc1cc(Cl)cc(Cl)c1 (stereo not drawn) [Example 214] | 501 to 2500 nM
22 | CN(C)CCCNCCC(CNC(=O)Nc1cc(Cl)cc(Cl)c1)c1ccc2c(c1)OCO2 (stereo not drawn) [Example 116] | 501 to 2500 nM
23 | CN(C)CCCNCCC(CNC(=O)Nc1cc(Cl)cc(Cl)c1)c1cccc(-c2ccc(C(F)(F)F)cc2)c1 (stereo not drawn) [Example 150] | 51 to 500 nM
24 | CN(C)CCC(CNC(=O)c1ccc(F)c(F)c1)c1ccc(-c2cccc(C#N)c2)cc1 (stereo not drawn) [Example 67] | 51 to 500 nM

Same assay, conditions: [125I]-MCH SPA binding, hMCHR-CHO membranes; Ki class ranges; read-out: Activity (range of Ki)

Row | SMILES | Ki
25 | O=C(NCC(CCNC1c2ccccc2CC1O)c1ccc(Cl)c(Cl)c1)c1cc(C(F)(F)F)cc(C(F)(F)F)c1 (stereo not drawn) [Example 420] | 501 to 2500 nM
26 | O=C(NCC(CCN1CCCCC1)c1ccc(Cl)c(Cl)c1)c1cc(Cl)cc(Cl)c1 (stereo not drawn) [Example 446] | 501 to 2500 nM
27 | COc1cc(CN(C)CCC(CNC(=O)Nc2cc(C(F)(F)F)cc(C(F)(F)F)c2)c2ccc(Cl)c(Cl)c2)cc(OC)c1OC (stereo not drawn) [Example 421] | 51 to 500 nM
28 | O=C(NCC(CCN1CCC(CO)C1)c1ccc(Cl)c(Cl)c1)Nc1cc(C(F)(F)F)cc(C(F)(F)F)c1 (stereo not drawn) [Example 432] | 501 to 2500 nM
29 | Cc1ccc(C(CCN2CCC(N3CCCCC3)CC2)CNC(=O)Nc2cc(C(F)(F)F)cc(C(F)(F)F)c2)cc1 (stereo not drawn) [Example 443] | 51 to 500 nM
30 | Cc1ccc(C(CCN2CCCCC2)CNC(=O)c2cc(C(F)(F)F)cc(C(F)(F)F)c2)cc1 (stereo not drawn) [Example 454] | 501 to 2500 nM
31 | O=C(NCC(CCNCC1CCCO1)c1ccc(Cl)c(Cl)c1)Nc1cc(C(F)(F)F)cc(C(F)(F)F)c1 (stereo not drawn) [Example 431] | 501 to 2500 nM
32 | O=C(NCC(CCN1CCCCC1)c1ccc(Cl)c(Cl)c1)c1ccc(F)cc1 (stereo not drawn) [Example 455] | 501 to 2500 nM
33 | Cc1ccc(C(CCN2CCC(N3CCCCC3)CC2)CNC(=O)Cc2ccc(Cl)c(Cl)c2)cc1 (stereo not drawn) [Example 451] | 501 to 2500 nM

Same assay, conditions: [125I]-MCH binding to hMCHR-CHO membranes; class symbols for ranges of Ki; read-out: Activity (Ki range)

Row | SMILES | Ki
34 | O=S(=O)(NCC(CCNCCc1c[nH]c2ccccc12)c1cccc(Cl)c1)c1ccc(Cl)c(Cl)c1 (stereo not drawn) [Example 340] | 501 to 2500 nM
35 | O=C(NCC(CCNC1CCCC1)c1ccc(-c2ccc(F)c(Cl)c2)cc1)Nc1cc(Cl)cc(Cl)c1 (stereo not drawn) [Example 226] | 51 to 500 nM
36 | O=C(NCC(CCN1CCNCC1)c1ccc(Cl)c(Cl)c1)Nc1cc(Cl)cc(Cl)c1 (stereo not drawn) [Example 308] | 501 to 2500 nM
37 | CCN(CC)CCC(CNC(=O)c1cc(C(F)(F)F)cc(C(F)(F)F)c1)c1ccc(Cl)c(Cl)c1 (stereo not drawn) [Example 412] | 501 to 2500 nM
38 | CN(C)CCCNCCC(CNC(=O)Nc1cc(Cl)cc(Cl)c1)c1ccc(-c2ccc(F)cc2)cc1 (stereo not drawn) [Example 237] | 51 to 500 nM
39 | Cc1ccc(-c2ccc(C(CCNC3CCCC3)CNC(=O)Nc3cc(Cl)cc(Cl)c3)cc2)cc1 (stereo not drawn) [Example 249] | 51 to 500 nM
40 | O=C(NCC(CCNC1CCCC1)c1ccc(Cl)c(Cl)c1)Nc1ccc(Cl)c(Cl)c1 (stereo not drawn) [Example 279] | 51 to 500 nM
41 | CN1CCCC1CCNCCC(CNC(=O)Nc1cccc(C(F)(F)F)c1)c1ccc(Cl)c(Cl)c1 (stereo not drawn) [Example 300] | 501 to 2500 nM
42 | O=C(NCC(CCNC1CCNC1)c1ccc(Cl)c(Cl)c1)Nc1cc(C(F)(F)F)cc(C(F)(F)F)c1 (stereo not drawn) [Example 318] | 501 to 2500 nM
43 | CN1CCCC1CCNCCC(CNC(=O)c1cc(C(F)(F)F)cc(C(F)(F)F)c1)c1ccc(Cl)c(Cl)c1 (stereo not drawn) [Example 413] | 501 to 2500 nM
44 | O=C(NCC(CCNC1CCC1)c1ccc(Cl)c(Cl)c1)Nc1cc(C(F)(F)F)cc(C(F)(F)F)c1 (stereo not drawn) [Example 314] | 51 to 500 nM
45 | O=C(NCC(CCN1CCC(N2CCCCC2)CC1)c1ccc(F)c(F)c1)Nc1ccc(F)c(Cl)c1 (stereo not drawn) [Example 378] | 501 to 2500 nM
46 | O=C(NCC(CCN1CCCC1)c1cccc(F)c1)Nc1cc(C(F)(F)F)cc(C(F)(F)F)c1 (stereo not drawn) [Example 341] | 501 to 2500 nM
47 | CN(C)CCCNCCC(CNC(=O)Nc1cc(Cl)cc(Cl)c1)c1ccc(Cl)c(Cl)c1 (stereo not drawn) [Example 304] | 501 to 2500 nM
48 | CN(C)CCCNCCC(CNC(=O)Nc1cc(Cl)cc(Cl)c1)c1ccc(-c2ccc(Cl)c(Cl)c2)cc1 (stereo not drawn) [Example 247] | 51 to 500 nM
49 | Cc1cc(C)cc(NC(=O)NCC(CCN2CCC(N3CCCCC3)CC2)c2ccc(Cl)c(Cl)c2)c1 (stereo not drawn) [Example 377] | 501 to 2500 nM
50 | CN(C)CCCNCCC(CNC(=O)Nc1cc(Cl)cc(Cl)c1)c1ccc(-c2ccccc2Cl)cc1 (stereo not drawn) [Example 232] | 51 to 500 nM
51 | Cc1ccc(C(CCN2CCCCC2)CNC(=O)Nc2cc(Cl)ccc2Cl)cc1 (stereo not drawn) [Example 353] | 51 to 500 nM
52 | O=C(NCC(CCN1CCC(N2CCCCC2)CC1)c1ccc(Cl)c(Cl)c1)Nc1ccc([N+](=O)[O-])c(Cl)c1 (stereo not drawn) [Example 286] | 51 to 500 nM
53 | O=S(=O)(NCC(CCN1CCC(N2CCCCC2)CC1)c1ccc(Cl)c(Cl)c1)c1cccc(C(F)(F)F)c1 (stereo not drawn) [Example 376] | 501 to 2500 nM

Row | SMILES | Ki
54 | CCN1CCCC1CNCCC(CNC(=O)c1cc(C(F)(F)F)cc(C(F)(F)F)c1)c1ccc(Cl)c(Cl)c1 (stereo not drawn) [Example 407] | 501 to 2500 nM
55 | CN(C)CCCNCCC(CNC(=O)Nc1cc(Cl)cc(Cl)c1)c1ccc(-c2cccc(Cl)c2)cc1 (stereo not drawn) [Example 221] | 0.4 to 50 nM
56 | Cc1ccc(C(CCNC2CCC2)CNC(=O)Nc2cc(Cl)cc(Cl)c2)cc1 (stereo not drawn) [Example 272] | 51 to 500 nM
57 | CCOC(=O)N1CCC(NCCC(CNC(=O)Nc2ccc(F)c(Cl)c2)c2ccc(Cl)c(Cl)c2)CC1 (stereo not drawn) [Example 260] | 51 to 500 nM
58 | O=C(NCC(CCNC1CCCC1)c1ccc(-c2cc(C(F)(F)F)cc(C(F)(F)F)c2)cc1)Nc1cc(Cl)cc(Cl)c1 (stereo not drawn) [Example 253] | 501 to 2500 nM
59 | O=C(NCC(CCNC1CCCCC1)c1ccc(Cl)cc1)Nc1cc(Cl)cc(Cl)c1 (stereo not drawn) [Example 266] | 51 to 500 nM
60 | COc1ccc(C(CCN2CCCC2)CNC(=O)Nc2cc(C(F)(F)F)cc(C(F)(F)F)c2)cc1 (stereo not drawn) [Example 335] | 501 to 2500 nM
61 | Cc1ccc(C(CCN2CCC(N)CC2)CNC(=O)Nc2cc(Cl)cc(Cl)c2)cc1 (stereo not drawn) [Example 324] | 501 to 2500 nM
62 | O=C(NCC(CCN1CCC(N2CCCCC2)CC1)c1ccc(Cl)c(Cl)c1)Nc1ccc(Cl)cc1 (stereo not drawn) [Example 325] | 501 to 2500 nM
63 | NC1CCN(CCC(CNC(=O)Nc2cc(Cl)cc(Cl)c2)c2ccc(Cl)c(Cl)c2)CC1 (stereo not drawn) [Example 322] | 501 to 2500 nM
64 | O=S(=O)(NCC(CCNCCc1c[nH]c2ccccc12)c1cccc(F)c1)c1ccc(Cl)c(Cl)c1 (stereo not drawn) [Example 339] | 501 to 2500 nM
65 | O=C(NCC(CCNC1CCCC1)c1ccc(Cl)c(Cl)c1)Nc1cc(C(F)(F)F)cc(C(F)(F)F)c1 (stereo not drawn) [Example 328] | 0.4 to 50 nM
66 | O=C(NCC(CCNC1CCC1)c1ccc(Cl)c(Cl)c1)c1cc(C(F)(F)F)cc(C(F)(F)F)c1 (stereo not drawn) [Example 398] | 501 to 2500 nM
67 | O=C(NCC(CCN1CCc2c([nH]c3ccccc23)C1)c1ccc(Cl)c(Cl)c1)c1cc(C(F)(F)F)cc(C(F)(F)F)c1 (stereo not drawn) [Example 397] | 501 to 2500 nM
68 | O=C(NCC(CCN1CCN(c2ccc(O)cc2)CC1)c1ccc(Cl)c(Cl)c1)c1cc(C(F)(F)F)cc(C(F)(F)F)c1 (stereo not drawn) [Example 402] | 501 to 2500 nM
69 | O=C(NCC(CCNC1CCCC1)c1ccc(Cl)c(Cl)c1)Nc1cccc(C(F)(F)F)c1 (stereo not drawn) [Example 290] | 51 to 500 nM
70 | CN(C)CCCNCCC(CNC(=O)Nc1cc(Cl)cc(Cl)c1)c1ccc(-c2cccc(C#N)c2)cc1 (stereo not drawn) [Example 218] | 0.4 to 50 nM
71 | O=C(NCC(CCNCc1ccc2c(c1)OCO2)c1ccc(Cl)c(Cl)c1)Nc1cccc(C(F)(F)F)c1 (stereo not drawn) [Example 302] | 501 to 2500 nM
72 | CN(C)CCCNCCC(CNC(=O)Nc1cc(Cl)cc(Cl)c1)c1ccc(-c2ccccc2)cc1 (stereo not drawn) [Example 233] | 51 to 500 nM
